The values that follow come from patent US8865698B2, “Method of treatment using substituted pyrazolo[1,5-a]pyrimidine compounds” (Array BioPharma Inc., priority 2008, dated 2014).

pIC50: −log10 of the molar value. Where a name gives a salt, the structure may show the parent alone.

Sequence of histidine-tagged recombinant human TrkA, cytoplasmic domain (P04629 440-796): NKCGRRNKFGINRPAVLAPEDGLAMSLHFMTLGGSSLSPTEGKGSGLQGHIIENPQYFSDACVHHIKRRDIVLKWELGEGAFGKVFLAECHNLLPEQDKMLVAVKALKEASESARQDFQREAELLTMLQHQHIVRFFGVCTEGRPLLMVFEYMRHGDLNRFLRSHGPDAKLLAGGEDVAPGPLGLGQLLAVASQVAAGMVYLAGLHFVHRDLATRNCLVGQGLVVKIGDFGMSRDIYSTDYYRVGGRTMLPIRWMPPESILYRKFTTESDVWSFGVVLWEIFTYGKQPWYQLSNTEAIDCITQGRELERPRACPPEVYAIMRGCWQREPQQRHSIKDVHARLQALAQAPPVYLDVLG

For the assay, the target named is histidine-tagged recombinant human TrkA, cytoplasmic domain (Homo sapiens (Human), UniProt P04629). Kind of assay: TrkA ELISA Assay. The format is biochemical. As to conditions: 2.5 nM TrkA, 500 μM ATP, 25 minutes; read-out: TrkA Elisa Enzyme IC50. The procedure:
An enzyme-linked immunosorbant assay (ELISA) was used to assess TrkA kinase activity in the presence of inhibitors. Immulon 4HBX 384-well microtiter plates (Thermo part #8755) were coated with a 0.025 mg/mL solution of poly (Glu, Ala, Tyr; 6:3:1; Sigma P3899). Various concentrations of test compound, 2.5 nM TrkA (Invitrogen Corp., histidine-tagged recombinant human TrkA, cytoplasmic domain), and 500 μM ATP were incubated for 25 minutes at ambient temperature in the coated plates while shaking. The assay buffer consisted of 25 mM MOPS pH 7.5, 0.005% (v/v) Triton X-100 and 5 mM MgCl2. The reaction mixture was removed from the plate by washing with PBS containing 0.1% (v/v) Tween 20. The phosphorylated reaction product was detected using 0.2 μg/mL of a phosphotyrosine specific monoclonal antibody (clone PY20) conjugated to horseradish peroxidase in conjunction with the TMB Peroxidase Substrate System (KPL). After the addition of 1M phosphoric acid, the chromogenic substrate color intensity was quantitated via absorbance at 450 nm. IC50 values were calculated using either a 4 or 5-parameter logistic curve fit.
(ELISA stands for enzyme-linked immunosorbent assay.)
`O=C(Nc1cnn2ccc(N3CCC[C@@H]3c3cc(F)ccc3Cl)nc12)N1CCC[C@H](O)C1` [Example 44, (S)—N-(5-((R)-2-(2-chloro-5-fluorophenyl)pyrrolidin-1-yl)pyrazolo[1,5-a]pyrimidin-3-yl)-3-hydroxypiperidine-1-carboxamide]: the negative-log IC50 (pIC50) is 7.87. In the case of `C[C@H]1CN(C(=O)Nc2cnn3ccc(N4CCC[C@@H]4c4cc(F)ccc4Cl)nc23)CCN1` [Example 25, (S)—N-(5-((R)-2-(2-chloro-5-fluorophenyl)pyrrolidin-1-yl)pyrazolo[1,5-a]pyrimidin-3-yl)-3-methylpiperazine-1-carboxamide hydrochloride], the pIC50 was 7.08. As to `CCS(=O)(=O)Nc1ccc(C(=O)Nc2cnn3ccc(N4CCC[C@@H]4c4cccc(F)c4)nc23)cc1` [Example 72, (R)-4-(ethylsulfonamido)-N-(5-(2-(3-fluorophenyl)pyrrolidin-1-yl)pyrazolo[1,5-a]pyrimidin-3-yl)benzamide], the pIC50 is 7.34. As for `CNC(=O)C(=O)Nc1cnn2ccc(N3CCC[C@@H]3c3cc(F)ccc3F)nc12` [Example 98, (R)—N^1-(5-(2-(2,5-difluorophenyl)pyrrolidin-1-yl)pyrazolo[1,5-a]pyrimidin-3-yl)-N^2-methyloxalamide], the negative logarithm of the IC50 (pIC50) was 8.12. With `O=C(Nc1cnn2ccc(N3CCC[C@@H]3c3cc(F)ccc3C(F)(F)F)nc12)N1CC[C@@H](O)C1` [Example 85, (R)—N-(5-((R)-2-(5-fluoro-2-(trifluoromethyl)phenyl)pyrrolidin-1-yl)pyrazolo[1,5-a]pyrimidin-3-yl)-3-hydroxypyrrolidine-1-carboxamide], the negative-log IC50 (pIC50) is 8.24. As to `Cn1nc(C(=O)Nc2cnn3ccc(N4CCC[C@@H]4c4cccc(F)c4)nc23)ccc1=O` [Example 6, (R)—N-(5-(2-(3-fluorophenyl)pyrrolidin-1-yl)pyrazolo[1,5-a]pyrimidin-3-yl)-1-methyl-6-oxo-1,6-dihydropyridazine-3-carboxamide], the pIC50 is 7.72. The result for `CN(C)C(=O)Nc1cnn2ccc(N3CCC[C@@H]3c3cc(F)ccc3F)nc12` [Example 2, (R)-3-(5-(2-(2,5-difluorophenyl)pyrrolidin-1-yl)pyrazolo[1,5-a]pyrimidin-3-yl)-1,1-dimethylurea] reads 7.80; that for `O=C(Nc1cnn2ccc(N3CCC[C@@H]3c3cc(F)cc(Cl)c3)nc12)N1CC(O)C1` [Example 11, (R)—N-(5-(2-(3-chloro-5-fluorophenyl)pyrrolidin-1-yl)pyrazolo[1,5-a]pyrimidin-3-yl)-3-hydroxyazetidine-1-carboxamide], 6.77. As for `COC(=O)C1(C(=O)Nc2cnn3ccc(N4CCC[C@@H]4c4cc(F)ccc4F)nc23)CC1` [Example 33, (R)-methyl 1-(5-(2-(2,5-difluorophenyl)pyrrolidin-1-yl)pyrazolo[1,5-a]pyrimidin-3-ylcarbamoyl)cyclopropanecarboxylate], the negative-log IC50 (pIC50) was 8.33.

Consider `C[C@]1(C(=O)Nc2cnn3ccc(N4CCC[C@@H]4c4cc(F)ccc4F)nc23)CCCN1` [Example 53, (R)—N-(5-((R)-2-(2,5-difluorophenyl)pyrrolidin-1-yl)pyrazolo[1,5-a]pyrimidin-3-yl)-2-methylpyrrolidine-2-carboxamide], for which the pIC50 is 7.51. As to `CC(C)(C)C(=O)Nc1cnn2ccc(N3CCC[C@@H]3c3cc(F)ccc3F)nc12` [Example 45, (R)—N-(5-(2-(2,5-difluorophenyl)pyrrolidin-1-yl)pyrazolo[1,5-a]pyrimidin-3-yl)pivalamide], the pIC50 was 8.20. With `CNC(C)(C)C(=O)Nc1cnn2ccc(N3CCC[C@@H]3c3cc(F)ccc3F)nc12` [Example 66, (R)—N-(5-(2-(2,5-difluorophenyl)pyrrolidin-1-yl)pyrazolo[1,5-a]pyrimidin-3-yl)-2-methyl-2-(methylamino)propanamide], the pIC50 is 7.28. In the case of `O=C(Nc1cnn2ccc(N3CCC[C@@H]3c3cccc(F)c3)nc12)c1cc[nH]n1` [Example 74, (R)—N-(5-(2-(3-fluorophenyl)pyrrolidin-1-yl)pyrazolo[1,5-a]pyrimidin-3-yl)-1H-pyrazole-3-carboxamide], the pIC50 is 7.82. On to `O=C(Nc1cnn2ccc(N3CCC[C@@H]3c3cc(F)ccc3F)nc12)C(=O)N1CC[C@H](O)C1` [Example 102, N-(5-((R)-2-(2,5-difluorophenyl)pyrrolidin-1-yl)pyrazolo[1,5-a]pyrimidin-3-yl)-2-((S)-3-hydroxypyrrolidin-1-yl)-2-oxoacetamide], for which the pIC50 was 7.89. As to `O=C(Nc1cnn2ccc(N3CCC[C@@H]3c3cc(F)ccc3Cl)nc12)N1CCC(O)CC1` [Example 42, (R)—N-(5-(2-(2-chloro-5-fluorophenyl)pyrrolidin-1-yl)pyrazolo[1,5-a]pyrimidin-3-yl)-4-hydroxypiperidine-1-carboxamide], the negative-log IC50 (pIC50) was 7.55.

With `O=C(Nc1cnn2ccc(N3CCC[C@@H]3c3cccc(F)c3)nc12)c1ccccn1` [Example 68, (R)—N-(5-(2-(3-fluorophenyl)pyrrolidin-1-yl)pyrazolo[1,5-a]pyrimidin-3-yl)picolinamide], the pIC50 is 8.40. In the case of `O=C(Nc1cnn2ccc(N3CCC[C@@H]3c3cccc(F)c3)nc12)c1cccnc1` [Example 76, (R)—N-(5-(2-(3-fluorophenyl)pyrrolidin-1-yl)pyrazolo[1,5-a]pyrimidin-3-yl)nicotinamide], the pIC50 is 7.27.

`CC1CN(C(=O)Nc2cnn3ccc(N4CCC[C@@H]4c4cc(F)ccc4F)nc23)CC(C)N1` (stereo partly drawn) [Example 29]: the negative logarithm of the IC50 (pIC50) was 7.01. For the molecule `O=C(Nc1ccccc1)Nc1cnn2ccc(N3CCC[C@@H]3c3cc(F)ccc3F)nc12` [Example 4, (R)-1-(5-(2-(2,5-difluorophenyl)pyrrolidin-1-yl)pyrazolo[1,5-a]pyrimidin-3-yl)-3-phenylurea], the negative logarithm of the IC50 (pIC50) is 8.30.

For the molecule `O=C(Nc1cnn2ccc(N3CCC[C@@H]3c3cc(F)ccc3C(F)F)nc12)N1CC(O)C1` [Example 12, (R)—N-(5-(2-(2-(difluoromethyl)-5-fluorophenyl)pyrrolidin-1-yl)pyrazolo[1,5-a]pyrimidin-3-yl)-3-hydroxyazetidine-1-carboxamide], the pIC50 was 7.58. Turning to `O=C(Nc1cnn2ccc(N3CCC[C@@H]3c3cncc(F)c3)nc12)N1CC[C@H](O)C1` [Example 88, (S)—N-(5-((R)-2-(5-fluoropyridin-3-yl)pyrrolidin-1-yl)pyrazolo[1,5-a]pyrimidin-3-yl)-3-hydroxypyrrolidine-1-carboxamide], the pIC50 was 6.81. For `CC(C)(O)C(=O)Nc1cnn2ccc(N3CCC[C@@H]3c3cc(F)ccc3F)nc12` [Example 50, (R)—N-(5-(2-(2,5-difluorophenyl)pyrrolidin-1-yl)pyrazolo[1,5-a]pyrimidin-3-yl)-2-hydroxy-2-methylpropanamide], the negative-log IC50 (pIC50) is 7.91. `O=C(O)C(=O)Nc1cnn2ccc(N3CCC[C@@H]3c3cc(F)ccc3F)nc12` [Example 105, (R)-2-(5-(2-(2,5-difluorophenyl)pyrrolidin-1-yl)pyrazolo[1,5-a]pyrimidin-3-ylamino)-2-oxoacetic acid]: the pIC50 is 8.33. For the molecule `O=C(Nc1cnn2ccc(N3CCC[C@@H]3c3cccc(F)c3)nc12)N1CC(O)C1` [Example 32, (R)—N-(5-(2-(3-fluorophenyl)pyrrolidin-1-yl)pyrazolo[1,5-a]pyrimidin-3-yl)-3-hydroxyazetidine-1-carboxamide], the pIC50 is 6.94.

Regarding `CC(C)C(=O)Nc1cnn2ccc(N3CCC[C@@H]3c3cc(F)ccc3F)nc12` [Example 5, (R)—N-(5-(2-(2,5-difluorophenyl)pyrrolidin-1-yl)pyrazolo[1,5-a]pyrimidin-3-yl)isobutyramide], the negative logarithm of the IC50 (pIC50) is 7.92. Turning to `C[C@H]1CN(C(=O)Nc2cnn3ccc(N4CCC[C@@H]4c4cc(F)ccc4F)nc23)CCN1C(=O)OC(C)(C)C` [Example 30, (S)-tert-butyl 4-(5-((R)-2-(2,5-difluorophenyl)pyrrolidin-1-yl)pyrazolo[1,5-a]pyrimidin-3-ylcarbamoyl)-2-methylpiperazine-1-carboxylate], the pIC50 is 6.81. For `O=C(Nc1cnn2ccc(N3CCC[C@@H]3c3cc(F)ccc3F)nc12)c1cc(Cl)ccn1` [Example 62, (R)-4-chloro-N-(5-(2-(2,5-difluorophenyl)pyrrolidin-1-yl)pyrazolo[1,5-a]pyrimidin-3-yl)picolinamide], the pIC50 was 8.40. As to `O=C(Nc1ccc(Cl)cc1)Nc1cnn2ccc(N3CCC[C@@H]3c3cc(F)ccc3F)nc12` [Example 19, (R)-1-(4-chlorophenyl)-3-(5-(2-(2,5-difluorophenyl)pyrrolidin-1-yl)pyrazolo[1,5-a]pyrimidin-3-yl)urea], the negative-log IC50 (pIC50) is 8.00. As for `O=C(Nc1cnn2ccc(N3CCC[C@@H]3c3cc(F)ccc3F)nc12)N1C[C@@H](O)[C@H](O)C1` [Example 15, (3R,4R)—N-(5-((R)-2-(2,5-difluorophenyl)pyrrolidin-1-yl)pyrazolo[1,5-a]pyrimidin-3-yl)-3,4-dihydroxypyrrolidine-1-carboxamide], the negative logarithm of the IC50 (pIC50) is 7.88. Regarding `O=C(Nc1cnn2ccc(N3CCC[C@@H]3c3cc(F)ccc3C(F)F)nc12)N1CCC[C@H](O)C1` [Example 40, (S)—N-(5-((R)-2-(2-(difluoromethyl)-5-fluorophenyl)pyrrolidin-1-yl)pyrazolo[1,5-a]pyrimidin-3-yl)-3-hydroxypiperidine-1-carboxamide], the pIC50 is 7.51.

For orientation: pIC50 means the IC50 on a negative log10 scale, so that one unit is a factor of ten.
